Laboratory results reported in patent publication US20220127267A1, “THIENO[3,2-B] PYRROLE[3,2-D]PYRIDAZINONE DERIVATIVES AND THEIR USE AS PKM2 DERIVATIVES FOR THE TREATMENT OF CANCER, OBESITY AND DIABETES RELATED DISORDERS” (Agios Pharmaceuticals, Inc., priority 2019, published 2022).

Experiments:
RBCs = test: Cell Based ATP Assay in purified red blood cells (Cell-Titer-Glo); parameters: species or system human; details: wild type PKR, ATP levels in RBCs, overnight at 37° C.; for AC50: Homo sapiens, Erythrocyte
Protocol: Fresh blood drawn from healthy volunteers into K2EDTA tubes was collected. Whole blood was pelleted by spinning at 500 g for 10 minutes. The transfusion bag port was cut off Purecell leukocyte reduction neofilter (Fisher NC0267633) one (1) inch above filter. A 10 ml syringe barrel was attached to the remaining cut tubing attached to the neofilter. The plasma layer was removed from the pellet of the whole blood and the pellet was resuspended in 2× volume of phosphate buffered saline (PBS). 9 ml re-suspended blood cell pellet was transferred to a 10 ml syringe that was attached to the neofilter. The whole blood was allowed to gravity flow through filter until all fluid ran through upper tubing into a filter disc. The plunger was added to the syringe. The filter was inverted and air was plunged through the syringe filter system. A new 5 ml syringe was used to remove filtered RBCs from the bag by the syringe port. Purified RBCs were transferred to a 5 ml snap cap tube that had been incubated on ice. The 5 ml snap cap tube was spun at 500 g for 10 minutes at 15 C. Supernatant was aspirated and resuspended in AGAM (1×PBS, 1% glucose, 170 mg/L adenine, 5.25 g/L mannitol) at a density of 4×10^9 cells/mL.
For cell based ATP assays, the compound as described herein was prepared in 100% DMSO as a 10 mM stock. Serial dilutions (1:4) were performed in 96-well V-bottom storage plate and then added 1:100 to 96-well V-bottom plates containing AGAM. 10 μL/well of compound diluted in AGAM was added to black clear bottom assay plates. RBCs were diluted in AGAM media to a density of 1×10^7 cells/mL before added 90 μL/well to black clear bottom assay plates (final compound concentration at 0.1% DMSO concentration). Assay plates were sealed using aluminum foil seals and incubated overnight at 37° C. in a humidified chamber. ATP levels were read out using Cell-Titer-Glo (Promega).

PKR K410E = PKR K410E (Homo sapiens, UniProt P30613, K410E); test: PKR Mutant Assay (K410E), LDH-coupled, absorbance 340 nm; assay type: biochemical; details: mutant PKR K410E enzyme activation
Chain of PKR K410E (P30613 whole entry K410E): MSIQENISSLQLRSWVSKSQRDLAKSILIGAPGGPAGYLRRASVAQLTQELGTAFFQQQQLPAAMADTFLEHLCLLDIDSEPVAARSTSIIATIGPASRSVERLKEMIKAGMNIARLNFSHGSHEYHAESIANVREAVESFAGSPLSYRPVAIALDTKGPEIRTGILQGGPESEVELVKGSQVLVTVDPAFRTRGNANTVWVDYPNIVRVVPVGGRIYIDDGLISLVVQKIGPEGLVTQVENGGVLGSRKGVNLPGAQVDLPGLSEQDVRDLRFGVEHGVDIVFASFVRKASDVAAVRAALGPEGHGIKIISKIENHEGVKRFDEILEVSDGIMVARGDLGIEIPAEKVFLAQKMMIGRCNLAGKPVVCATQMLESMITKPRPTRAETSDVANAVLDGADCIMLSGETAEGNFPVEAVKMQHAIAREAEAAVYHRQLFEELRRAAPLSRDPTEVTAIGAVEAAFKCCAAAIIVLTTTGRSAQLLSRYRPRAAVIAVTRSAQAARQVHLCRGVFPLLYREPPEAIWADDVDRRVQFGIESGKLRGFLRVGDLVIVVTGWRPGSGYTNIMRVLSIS
Protocol: (§1) PKR (WT or mutant) enzyme stock solution was diluted to prepare a 1.25× Reaction Mix (without ADP). 1 μL of test compound was first added to the wells followed by 40 μL of 1.25× Reaction Mix (without ADP) and incubated at room temperature (25° C.) for 60 min. The reaction was initiated with 10 μL ADP, bringing the final Reaction Mix to 1x, and the reaction progress was measured as changes in absorbance at 340 nm wavelength at room temperature.
(§2) Test compound preparation: Test compounds were prepared at 50× final concentration in DMSO. 1 to 3 dilutions were made for 11 points (for example 50 μL of 5000 μM compound was added to 100 μL 100% DMSO to yield a 1667 μM, 50 μL of this added to 100 μL DMSO to yield 556 μM, and so forth). The compounds were added to the assay as a 1 to 50 dilution (1 μL in 50 μL) to yield a top concentration of 100 μM, decreasing 3-fold for 11 points.
(§3) Reaction Mix: PKR (1.25-1000 ng/well, 0.025-20 μg/ml depending on the PKR mutant), ADP (0.05-2.3 mM depending on the PKR mutant), PEP (0.031-2 mM depending on the PKR mutant), NADH (180 μM), LDH (0.005 U/μL, Sigma #L3888), 1 mM DTT, 0.03% BSA in 1× Reaction Buffer
(§4) Reaction Buffer: 100 mM KCl, 50 mM Tris pH 7.5, 5 mM MgCl2.

PK R510Q = PK R510Q (Homo sapiens, UniProt P30613, R510Q); test: PKR Mutant Assay (R510Q), LDH-coupled, absorbance 340 nm; assay type: biochemical; details: mutant PKR R510Q enzyme activation
Chain of PK R510Q (P30613 whole entry R510Q): as the sequence (P30613 whole entry K410E) above, with E410K, R510Q counted along it
Protocol: as §1, §2, §3, §4

PKR WT = PKR WT (Homo sapiens, UniProt P30613); test: PKR enzyme assay (WT), LDH-coupled, absorbance 340 nm; assay type: biochemical; details: wild type PKR enzyme activation
Chain of PKR WT (P30613 whole entry): as the sequence (P30613 whole entry K410E) above, with E410K counted along it
Protocol: as §1, §2, §3, §4

Row | SMILES | Cell based ATP assay AC50 (RBCs) | AC50 (PKR K410E) [nM] | AC50 (PK R510Q) [nM] | AC50 (PKR WT) [nM] | AC50 (RBCs) [nM] | PKR K410E AC50 (PKR K410E) | PK R510Q AC50 (PK R510Q) | PKR WT AC50 (PKR WT)
1 | Cc1cn2c(s1)c(C)c1c(=O)n(Cc3cc[nH]n3)ncc12 [Cpd 22] | No Fit | > 800 | > 800 | > 800 |  |  |  | 
2 | Cc1c2c(=O)n(Cc3ccn(C)n3)ncc2n2cc(CO)sc12 [Cpd 23] |  | > 800 | > 800 | > 800 | > 1000 |  |  | 
3 | Cc1c2c(=O)n(Cc3ccn(C)n3)ncc2n2cc(Cc3cc[nH]n3)sc12 [Cpd 24] |  | < 300 | < 300 | < 300 | ≤ 1000 |  |  | 
4 | COc1cccc(Cn2ncc3c4c(cnn4C)n(C)c3c2=O)c1 [Cpd 27] |  |  |  |  |  | No Fit | No Fit | No Fit
5 | COc1cccc(Cn2ncc3c4nn(Cc5ccccc5)cc4n(C)c3c2=O)c1 [Cpd 28] |  | 301 to 800 | < 300 | 301 to 800 |  |  |  | 
6 | COc1cccc(Cn2ncc3c4cccc(Br)c4n(C)c3c2=O)c1 [Cpd 33] |  |  |  |  |  | Inhibition | No Fit | No Fit
7 | COC(=O)c1ccc2c3cnn(Cc4cccc(OC)c4)c(=O)c3n(C)c2c1 [Cpd 40] |  | < 300 |  |  |  |  | No Fit | No Fit
8 | COc1cccc(Cn2ncc3c4ccc(C#N)cc4n(C)c3c2=O)c1 [Cpd 47] |  | < 300 | < 300 | 301 to 800 |  |  |  | 
9 | Cn1c2ccc(S(=O)(=O)c3cc[nH]n3)cc2c2cnn(Cc3cccc(C(N)=O)c3)c(=O)c21 [Cpd 49] |  | < 300 | < 300 | < 300 | ≤ 1000 |  |  | 
10 | Cn1c2cc(S(=O)(=O)c3cc[nH]n3)ccc2c2cnn(Cc3cccc(C(N)=O)c3)c(=O)c21 [Cpd 50] |  | > 800 | < 300 | 301 to 800 | > 1000 |  |  | 
11 | Cn1c2cc(S(C)(=O)=O)ccc2c2cnn(Cc3cccc(C(N)=O)c3)c(=O)c21 [Cpd 53] |  | 301 to 800 | < 300 | 301 to 800 | > 1000 |  |  | 
12 | Cn1c2cc(S(=O)(=O)c3ccccc3)ccc2c2cnn(Cc3cccc(C(N)=O)c3)c(=O)c21 [Cpd 54] |  | < 300 | < 300 | 301 to 800 | > 1000 |  |  | 
13 | Cn1cc(S(=O)(=O)c2ccc3c(c2)c2cnn(Cc4cccc(C(N)=O)c4)c(=O)c2n3C)cn1 [Cpd 55] |  | < 300 | < 300 | 301 to 800 | > 1000 |  |  | 
14 | Cn1cc(S(=O)(=O)c2ccc3c4cnn(Cc5cccc(C(N)=O)c5)c(=O)c4n(C)c3c2)cn1 [Cpd 56] |  | < 300 | < 300 | 301 to 800 | > 1000 |  |  | 
15 | Cn1c2ccc(S(=O)(=O)c3ccccc3)cc2c2cnn(Cc3cccc(C(N)=O)c3)c(=O)c21 [Cpd 57] |  | > 800 | < 300 | 301 to 800 | > 1000 |  |  | 
16 | Cn1ccc(Cn2ncc3c4ccc(Cc5cscn5)cc4n(C)c3c2=O)n1 [Cpd 58] |  | < 300 | < 300 | < 300 | ≤ 1000 |  |  | 
17 | COc1cccc(Cn2ncc3c4ccncc4n(C)c3c2=O)c1 [Cpd 64] |  | 301 to 800 | < 300 | 301 to 800 |  |  |  | 
18 | Cn1ccc(Cn2ncc3c4cc(Cc5cscn5)ncc4n(C)c3c2=O)n1 [Cpd 67] |  | < 300 | < 300 | < 300 | ≤ 1000 |  |  | 
19 | COc1cccc(Cn2ncc3c(c(Br)n4cc(C)sc34)c2=O)c1 [Cpd 68] |  | < 300 | < 300 | < 300 | > 1000 |  |  | 
